Data: ChEMBL document CHEMBL1121976, “Structure-activity relationships for hallucinogenic N,N-dialkyltryptamines: photoelectron spectra and serotonin receptor affinities of methylthio and methylenedioxy derivatives” (J Med Chem, 1982)

species: Rattus norvegicus; assay: The ability to inhibit the 5-HT-induced contraction of isolated rat fundus muscle was determined; assay type: functional; details: read-out: pA2 (converted)

SMILES	Kb [µM]
CSc1ccc2[nH]cc(CCN(C)C)c2c1	0.145
COc1ccc2[nH]cc(CCN(C)C)c2c1 [MEBUFOTENIN]	0.0832
COc1cccc2[nH]cc(CCN(C)C)c12	0.676
CSc1cccc2[nH]cc(CCN(C)C)c12	0.617
COc1ccc2c(CCN(C)C)c[nH]c2c1	1.7
CN(C)CCc1c[nH]c2cc3c(cc12)OCO3	1.02
CSc1ccc2c(CCN(C)C)c[nH]c2c1	1.2
CN(C)CCc1c[nH]c2ccccc12 [N,N-DIMETHYLTRYPTAMINE]	1
CN(C)CCc1c[nH]c2ccc3c(c12)OCO3	0.398
